Measurements: PMC8875489, “Pharmaceutical and Safety Profile Evaluation of Novel Selenocompounds with Noteworthy Anticancer Activity” (Pharmaceutics, 2022)
Where two headings read alike, the source gives them in different places.

Key:
[1] = Experimental aqueous solubility (UV spectrophotometry of saturated solutions); assay type: physicochemical; details: for solubility at 24 h: water (saturated solution)
Method: Experimental aqueous solubility was determined following a previously described procedure. Briefly, calibration curves were obtained by means of UV spectrometry for each compound, and their respective linear equations were obtained. Afterwards, saturated solutions of each compound were obtained, and they were diluted until the concentration fell within the calibration range, thus enabling the correct concentration interpolation. […] A detailed description of this process can be found in Supplementary Materials.
The aqueous solubility of the tested organic Se compounds was experimentally determined following a previously described procedure. The chosen assay used UV spectrophotometry to estimate the concentration of the saturated solution with known dilutions of the tested compound at room temperature (20° C) after 24 h. The concentrations of the solutions were used to obtain the interpolation of the measured UV absorbance of the saturated solution dilution from the calibration curve drawn using solutions previously prepared in methanol/water mixtures. […]
1.2. Determination of the aqueous solubility
1.2.1. Preparation of the saturated solutions of tested compounds
The saturated solutions (2 mL) of the tested Se-compounds in water were prepared at H2O boiling point in small glass vials. Later, vials were covered to avoid evaporation and all solutions were left 1 day at 20° C, after when every solution was filtered. Finally, the concentration of the Se-compounds was determined through UV spectrophotometric measurements. To estimate correctly the concentration, calibration curves with known concentrations were prepared, and the saturated solutions were diluted till reaching a point within the range of the respective calibration curve.
1.2.2. Preparation of the calibration curve stock solutions for UV spectrometry The stock solutions of 10 selenoesters (EDA-26, EDA-71, EDA-73, EDA-74, EDA-93, […]
were prepared in methanol (99% purity) at a 1 g/L concentration. Additionally, calibration solutions in the range from 0.0005 to 0.02 [g/L] were prepared for each Se-compound and their UV absorbance was determined to draw the corresponding calibration curve.
1.2.3. Sample preparation of saturated filtrates for UV spectrometry
The 100-fold diluted solutions of the saturated filtrates of the Se-compounds were prepared in the anhydrous methanol (99% purity), by addition of 70 μL of the correspond-ing methanol stock solution over anhydrous methanol till filling a 7 mL final volume. Af-terwards, the absorption of abovementioned solutions was determined. Finally, the solu-tions were diluted with 99% methanol from 1 to 160 times, in function of the compound.
The aim of this procedure was to determine the concentration of the Se-compounds […]
through the controlled dilution of the solution with unknown concentration till its UV absorbance fell within the range of the calibration solutions.
1.2.4. Solubility estimation
For each compound, the calibration curve was calculated through the UV absorbance measurements and the linear equation of the linear part of the curve was calculated. The absorbance of the dilution was then interpolated in this range, finding its concentration.
To determine the solubility, this concentration was multiplied by the dilution factor, which was specific for each derivative. This action enabled the estimation of the in vitro solubility of the tested derivatives in saturated solutions. All the solubility values were the average value obtained from the 3 independent measurements.
(§1) 1.3. PAMPA test: membrane permeability evaluation.
(§2) The passive transport and the membrane absorption of 5 selected selenocompounds (EDA-58, EDA-71, EDA-119, EDA-122, EDA-A6) were evaluated in the in vitro Parallel Artificial Membrane Permeability Assay (PAMPA). The protocol of the permeability assay was similar to the ones previously described.
1.3.1. Stock solutions and sample preparation for PAMPA test […]

[2] = PAMPA membrane permeability test (capillary electrophoresis); assay type: in vitro ADME; details: for Papp at 5 h, 50 µM: 50 μM in PBS pH 7.4, 5 h, room temperature, read-out: In Vitro Permeability; for % Perm. (percentage that crossed from the donor well to the acceptor well): 5 h
Method: The passive transport and membrane absorption of 5 selected selenocompounds (EDA-58, EDA-71, EDA-119, EDA-122, and EDA-A6) were evaluated with the in vitro parallel artificial membrane permeability assay (PAMPA). This PAMPA assay could provide better predictability and membrane permeability correlations compared to the data obtained for human absorption in the Caco-2 cell line. The Precoated PAMPA Plate System Gentest™ (Corning, Bradford, MA, USA) was used to perform the permeability assay for the 5 selected Se compounds. The protocol of the permeability assay was similar to the previously described ones and is detailed in the Supplementary Materials.
Five selenocompounds (EDA-58, EDA-71, EDA-119, EDA-122, and EDA-A6) were evaluated with the PAMPA in vitro assay using the CE technique.
[formula] Scheme 1 Calculation of the in vitro permeability (cm/s). A (filter area) cm^2 = 0.3; VD (donor well volume) mL = 0.3; VA (acceptor well volume) mL = 0.2; t (incubation time) seconds = 18,000; CA(t) (compound concentration in acceptor well at time t); CD(t) (compound concentration in donor well at time t). […]
as §1, §2
1.3.1. Stock solutions and sample preparation for PAMPA test
Working solutions of the tested compounds at the concentration of the 50 μM in the phosphate saline buffer (PBS, pH 7.4) were prepared from the stocks in the pure dimethyl sulfoxide (DMSO) and stored at -20° C. Moreover, to draw the precise calibration curves for each tested (EDA-58, EDA-71, EDA-119, EDA-122, EDA-A6) and reference com- […]
The Precoated PAMPA Plate System Gentest™ (Corning, Bradford, MA, USA) was used to perform permeability assay for the 5 selected Se-compounds. The essential part of […]
solvents. PAMPA Plate System was brought to room temperature 30 min before use.
The 96-well filter plate precoated with lipids was used as a permeation acceptor, whereas the 96-well receiver plate acted as the permeation donor plate. Therefore, the compound solutions were added to the wells (300 μL/well) of the receiver plate and PBS was added to wells (200 μL/well) of the precoated filter plate.
Then, the filter plate was coupled with the receiver plate and both were incubated at room temperature for five hours without agitation. […] Fi-nally, the permeability coefficients (Pe, [cm/s]) of the tested compounds were estimated using the formula provided by the PAMPA Plate System manufacturer.
1.3.3. Capillary electrophoresis (CE) analytical method […]
were calculated in both the donor and acceptor compartments using the capillary electro-

[3] = 20 °C, water, thermodynamic from solid, logSm calculated based on solubility Sm (mol/L), read-out: Experimental Aqueous Solubility logSm (converted)
[4] = thermodynamic from solid, water, room temperature (20° C), after 24 h, average of 3, read-out: Experimental Aqueous Solubility

Row | SMILES | solubility at 24 h [1, 3] | solubility at 24 h [1, 4] | permeability compared with caffeine [2] | Papp at 5 h, 50 µM [2] | % Perm. (percentage that crossed from the donor well to the acceptor well) [2] | fold less soluble than the most soluble Se compound (EDA-117) ([1]; experimental solubility) | solubility at 24 h ([1]; logSm calculated based on solubility Sm (mol/L), read-out: Experimental Aqueous Solubility logSm (converted))
1 | COC(=O)C[Se]C(=O)c1cc(OC)c(OC)c(OC)c1 [EDA-26, methyl 2-((3,4,5-trimethoxybenzoyl)selanyl)acetate] | 1100 µM | 0.38 mg/mL |  |  |  |  | 
2 | COC(=O)C[Se]C(=O)c1cc(OC)cc(OC)c1 [EDA-58, methyl 2-((3,5-dimethoxybenzoyl)selanyl)acetate] |  |  | lower permeability values than caffeine | 22.2 nm/s | 3.95% |  | 
3 | CC(=O)C[Se]C(=O)c1ccc(Cl)cc1 [EDA-71, Se-(2-oxopropyl) 4-chlorobenzoselenoate] | 479 µM | 0.132 mg/mL | higher permeability values than caffeine | 38.6 nm/s | 6.81% |  | 
4 | CC(C)(C)C(=O)C[Se]C(=O)c1ccc(Cl)cc1 [EDA-73, Se-(3,3-dimethyl-2-oxobutyl) 4-chlorobenzoselenoate] | ~3.16 µM | ~0.001 mg/mL |  |  |  | more than 1000 fold | 3.16 µM
5 | COc1cc(OC)cc(C(=O)[Se]CC(=O)C(C)(C)C)c1 [EDA-74, Se-(3,3-dimethyl-2-oxobutyl) 3,5-dimethoxybenzoselenoate] | 55 µM | 0.019 mg/mL |  |  |  |  | 
6 | O=C(C[Se]C(=O)c1ccccc1)Oc1ccccc1 [EDA-93, phenyl 2-(benzoylselanyl)acetate] | 69.2 µM | 0.022 mg/mL |  |  |  |  | 
7 | C[Se]C(=O)c1ccc(C(=O)[Se]C)cc1 [EDA-109, Se,Se-dimethyl benzene-1,4-bis(carboselenoate)] | 87.1 µM | 0.028 mg/mL |  |  |  |  | 
8 | C[Se]C(=O)c1cccc(C(=O)[Se]C)n1 [EDA-119, Se,Se-dimethyl pyridine-2,6-bis(carboselenoate)] | 427 µM | 0.137 mg/mL | lower permeability values than caffeine | 32.7 nm/s | 5.79% |  | 
9 | C[Se]C(=O)c1cccc(C(=O)[Se]C)c1 [EDA-120, Se,Se-dimethyl benzene-1,3-bis(carboselenoate)] | 81.3 µM | 0.026 mg/mL |  |  |  |  | 
10 | C[Se]C(=O)c1ccc(C(=O)[Se]C)s1 [EDA-122, Se,Se-dimethyl thiophene-2,5-bis(carboselenoate)] | 95.5 µM | 0.031 mg/mL | higher permeability values than caffeine | 46.7 nm/s | 8.20% |  | 
11 | O=C1[Se]C(=O)c2ccccc21 [EDA-A6, benzo[c]selenophene-1,3-dione] | 3630 µM | 0.758 mg/mL | higher permeability values than caffeine | 34.4 nm/s | 6.08% |  | 
